Values quoted from earlier work in publication PMC6985722 (Antimicrobial Agents and Chemotherapy, 2020).

What was measured:
[1] = cited from earlier work
RSV = tested on: RSV; parameters: method as in ref 21 = [21]; 21. Hanfelt-Goade D , Maimon N , Nimer A , Riviere F , Catherinot E , Ison M , Jeong SH , Walsh E , Gafter-Gvili A , Nama SR , Napora P , Chowers M , Bergeron A , Zeltser D , Moudgil H , Limaye AP , C; conditions: hospitalized RSV-infected adults treated relatively late; cited from earlier work

For `CC(C)C(=O)OC[C@@]1(CCl)O[C@@H](n2ccc(N)nc2=O)[C@H](F)[C@@H]1OC(=O)C(C)C` [ALS-008176], the Terminal half-life [1] is given as 63 h.
In the case of `Cc1cn2nc([C@@H]3CCCCN3C(=O)c3cc(Cl)ccc3NS(C)(=O)=O)cc2nc1N1CC[C@H](N)C1` [GS-5806], the “Viral load and clinical outcomes” value (RSV) is listed as “failed to significantly reduce the viral load or improve clinical outcomes”.
